{"source": "paper PMC2859942", "about": "(PLoS ONE, 2010)", "key": {"[1]": {"system": "IN WT, IN Y143C and IN Y143R", "type": "biochemical, HIV-1", "conditions": "strand transfer observed in the 3′end processing assay, uncleaved substrate, three enzymes"}, "[2]": {"system": "recombinant viruses (patient IN amplicons in pHXB2-ΔIN backbone) in MT4-LTR-eGFP cells", "experiment": "Drug susceptibility testing of replication-competent recombinant viruses (phenotypic sensitivity, eGFP readout)", "type": "cell-based, HIV-1", "conditions": "for EVG FC (elvitegravir sensitivity fold-change in IC50): vs IIIB HIV-1 wild-type reference"}, "[3]": {"conditions": "samples with the Y143C/H/R mutations"}}}
{"compound": "Cc1nnc(C(=O)NC(C)(C)c2nc(C(=O)NCc3ccc(F)cc3)c(O)c(=O)n2C)o1", "note": "[RAL, raltegravir]", "values": [{"measurement": "concentration of drug for complete inhibition of ST", "setting": "[1]", "result": 0.4, "unit": "µM"}, {"measurement": "median RAL FC", "setting": "[2]; [3]", "result": 24.83}, {"measurement": "range of RAL FC", "setting": "[2]; [3]", "result": "5.87–51.95"}]}
{"compound": "COc1cc2c(cc1Cc1cccc(Cl)c1F)c(=O)c(C(=O)O)cn2[C@H](CO)C(C)C", "note": "[EVG, elvitegravir]", "values": [{"measurement": "EVG FC (elvitegravir sensitivity fold-change in IC50)", "setting": "[2]; patient 1, D0, integrase mutations V72I I203M", "result": 0.89}, {"measurement": "EVG FC (elvitegravir sensitivity fold-change in IC50)", "setting": "[2]; patient 1, M3 on RAL, V72I L74L/M T97A/T Y143C I203M", "result": 1.56}, {"measurement": "EVG FC (elvitegravir sensitivity fold-change in IC50)", "setting": "[2]; patient 1, M9 (RAL removed after month 6), V72I I203M", "result": 0.83}, {"measurement": "EVG FC (elvitegravir sensitivity fold-change in IC50)", "setting": "[2]; patient 1, M12 (RAL removed after month 6), V72I I203M", "result": 1.43}, {"measurement": "EVG FC (elvitegravir sensitivity fold-change in IC50)", "setting": "[2]; patient 2, D0, V151I/V", "result": 0.94}, {"measurement": "EVG FC (elvitegravir sensitivity fold-change in IC50)", "setting": "[2]; patient 2, M3 on RAL, N155N/H", "result": 6.05}, {"measurement": "EVG FC (elvitegravir sensitivity fold-change in IC50)", "setting": "[2]; patient 2, M6 on RAL, T97A/T G163G/R Y143Y/C/H/R", "result": 6.23}, {"measurement": "EVG FC (elvitegravir sensitivity fold-change in IC50)", "setting": "[2]; patient 2, M9 on RAL, T97A/T G163G/R Y143Y/C/H/R", "result": 2.68}, {"measurement": "EVG FC (elvitegravir sensitivity fold-change in IC50)", "setting": "[2]; patient 3, D0, V72I", "result": 0.60}, {"measurement": "EVG FC (elvitegravir sensitivity fold-change in IC50)", "setting": "[2]; patient 3, M6 on RAL, V72I T97A/T Y143C/H/R/Y", "result": 3}, {"measurement": "EVG FC (elvitegravir sensitivity fold-change in IC50)", "setting": "[2]; patient 3, M12 on RAL, V72I T97A/T Y143C/H/R/Y", "result": 9.57}, {"measurement": "median EVG FC", "setting": "[2]; [3]", "result": 3}, {"measurement": "range of EVG FC", "setting": "[2]; [3]", "result": "1.56–9.57"}]}
